Assay results as given in patent US20180071339A1, “COMBINATION OF PHARMACEUTICAL PREPARATIONS FOR TUMOR CHEMOTHERAPY” (HUBEI SOUNDNY BIOTECHNOLOGY CO., LTD., priority 2015, published 2018).
Structures can show the parent of a compound that is named as a salt.

Columns and labels:
[1] = test system: mouse bladder cancer cell line MB49; test: mouse orthotopic bladder cancer model; type: in vivo, C57 mice; details: compared to mice firstly treated with cell vesicles then administered with Dox or HCPT; bladder infusion; bladders taken on day 12; FIGS. 7A and 7B
Procedure: Mouse bladder cancer cells are cultured with 10% of FBS 1640 basal medium until logarithm phase, and are resuspended with PBS into cell suspension with a cell concentration of 10^7/mL after being digested with trypsin. After C57 mice were anesthetized, 100 uL 0.1 mg/mL of polylysin solution are infused into mouse bladder using intravenous indwelling needle for pre-treatment for 20 min, and then 100 uL cell suspension are infused into the bladder after the polylysin solution is excreted, and cell suspension is excreted after holding for 1 h.
Preparing the cell vesicles with chemotherapy drugs wrapped therein: 100 uL chemotherapy drug (Dox or HCPT) are administered to 1 ml 1×10^7 mouse bladder cancer cells (1 mg/mL); 48 hours after administration of chemotherapy drugs, firstly centrifuging cell culture medium that contains apoptotic tumor cells at the rotational speed of 1300 rpm, 5000 rpm, respectively, each for 10 minutes and collecting a first supernatant; then centrifuging the first supernatant at the centrifugal force of 14000 g for 1 minute to remove cells and debris, and collecting a second supernatant; further centrifuging the second supernatant at the centrifugal force of 14000 g for 1 hour, then collecting precipitate to obtain cell vesicles with chemotherapy drugs wrapped therein. […]

[2] = test system: human breast cancer cells MCF-7; test: uptake of doxorubicin drugs by MCF-7, two-photon confocal microscope; type: cell-based; details: 1 μg/ml doxorubicin hydrochloride for 4 hours, test group first incubated with cell vesicles for 12 hours, FIG. 3
Procedure: (§1) Cell vesicles derived from human breast cancer cell line MCF-7 are obtained in accordance with the method in Example 2;
(§2) 1×10^5 human breast cancer cells MCF-7, tumor repopulating cells MCF-7/TRC, human breast cancer doxorubicin hydrochloride drug resistant cells ADR/MCF-7 were planted in the confocal dish, respectively. Cell vesicles that prepared above and derived from human breast cancer cell lines MCF-7 are added to the dish containing the above three kinds of cells respectively, with amount of 5×10^5/dish, and incubated for 12 hours, used as a test group;
(§3) Human breast cancer cells MCF-7, tumor repopulating cells MCF-7/TRC, and human breast cancer doxorubicin hydrochloride drug resistant strains ADR/MCF-7 without addition of cell vesicles are used as a control group. […]

[3] = test system: tumor repopulating cells MCF-7/TRC; test: uptake of doxorubicin drugs by MCF-7/TRC, two-photon confocal microscope; type: cell-based, human; details: 1 μg/ml doxorubicin hydrochloride for 4 hours, test group first incubated with cell vesicles for 12 hours, FIG. 3
Source text: as §1
5000 MCF-7 human breast cancer cells are planted in the three-dimensional fibrous protein gel, and after 5 days culturing, a stem cell-like colony is formed, these cells are referred to as tumor repopulating cells, that is, MCF-7/TRC.
as §2, §3

[4] = test system: human breast cancer cells MCF-7; test: excretion of doxorubicin drugs from MCF-7 cells, two-photon confocal microscope; type: cell-based; details: 1 μg/ml doxorubicin for 4 hours; test group first incubated with 5×10^5 cell vesicles for 12 hours; FIG. 2
Procedure: Human breast cancer cell line MCF-7 is cultured in RPMI Medium 1640, so that the cell amount reaches 2×10^7/ml; human breast cancer cell line MCF-7 is exposed to UV radiation for 60 minutes; 18 hours after UV radiation, human breast cancer cell line MCF-7 starts apoptosis, which is observed under microscope; collecting cell vesicles from the above apoptotic tumor cells by centrifugation or filtration procedure, as described in Example 1;
1×10^5 normally cultured human breast cancer cells MCF-7 are planted in a confocal dish, and then 5×10^5 cell vesicles prepared above and derived from human breast cancer cell line MCF-7 are added into the confocal dish and incubated with MCF-7 for 12 hours, and used as a test group (i.e., MCF-7 cells+MPs); 1×10^5 human breast cancer cells MCF-7 without adding the cells vesicles are used as a control group (i.e., MCF-7 cells).
The test group and the control group are washed once with PBS respectively, and then a medium containing 1 μg/ml of doxorubicin drugs is added, 4 hours later, two groups are stabilized with 4% of paraformaldehyde for 20 minutes, the excretion of doxorubicin drugs from the human breast cancer cell MCF-7 in test group and control group is observed under the Two-photon confocal microscope.

[5] = test system: human breast cancer doxorubicin hydrochloride drug resistant strains ADR/MCF-7; test: uptake of doxorubicin drugs by ADR/MCF-7, two-photon confocal microscope; type: cell-based; details: 1 μg/ml doxorubicin hydrochloride for 4 hours, test group first incubated with cell vesicles for 12 hours, FIG. 3
Procedure: as §1, §2, §3

| Compound | treatment effects [1] | doxorubicin drug content in the nucleus [2] | drug content in nucleus [3] | doxorubicin drug quantity in nucleus [4] | excretion of doxorubicin drugs from MCF-7 cells [4] | drug content in nucleus [5] |
| --- | --- | --- | --- | --- | --- | --- |
| CC[C@@]1(O)C(=O)OCc2c1cc1n(c2=O)Cc2cc3cc(O)ccc3nc2-1 [HCPT, hydroxycamptothecin] | weaker treatment effects | – | – | – | – | – |
| COc1cccc2c1C(=O)c1c(O)c3c(c(O)c1C2=O)C[C@@](O)(C(=O)CO)C[C@@H]3O[C@H]1C[C@H](N)[C@H](O)[C@H](C)O1 [doxorubicin, doxorubicin hydrochloride] | weaker treatment effects | not high | less than that in control group MCF-7 | drug quantity in nucleus is not high | excrete a great number of drugs outside of the cell membrane | less than that in control group MCF-7 |
